Reference: ChEMBL document CHEMBL3228021, “Studies on analgesic agents. 1.1a Preparation of 1,2-diphenyl-2-(4-substituted 1-piperazinyl)ethanol derivatives and structure-activity relationships” (J Med Chem, 1979)

Legend:
Mus musculus [1] = assay: Analgesic activity in sc dosed ddN mouse assessed as inhibition of light radiation-induced thermal pain by D'Amour-Smith method; type: functional
Mus musculus [2] = assay: Analgesic activity in po dosed ddN mouse assessed as inhibition of phenylquinone-induced writhing; type: functional
Mus musculus [3] = assay: Toxicity in sc dosed ddN mouse light radiation-induced thermal pain model; type: organism-based; conditions: in vivo
Mus musculus [4] = species: Mus musculus; assay: Toxicity in mouse assessed as induction of physical dependence liability by jumping test; type: organism-based; conditions: in vivo
Rattus norvegicus [5] = species: Rattus norvegicus; assay: Toxicity in morphine-dependent rat assessed as induction of physical dependence liability by substitution test; type: organism-based; conditions: in vivo
[6] = Acute lethal toxicity in sc dosed rat measured after 1 week; type: organism-based; conditions: in vivo
Rattus norvegicus [7] = assay: Analgesic activity in po dosed Wistar rat assessed as inhibition of tail pressing-induced mechanical pain by Haffner method; type: functional
Mus musculus [8] = assay: Analgesic activity in po dosed ddN mouse assessed as inhibition of light radiation-induced thermal pain by D'Amour-Smith method; type: functional
[9] = Acute lethal toxicity in sc dosed mouse measured after 1 week; type: organism-based; conditions: in vivo
[10] = Acute lethal toxicity in po dosed rat measured after 1 week; type: organism-based; conditions: in vivo
[11] = Acute lethal toxicity in po dosed mouse measured after 1 week; type: organism-based; conditions: in vivo
Rhesus monkey = assay: Toxicity in morphine-dependent monkey assessed as induction of physical dependence liability by single dose suppression test; type: organism-based, Macaca mulatta; conditions: in vivo
[12] = Toxicity in po dosed Wistar rat tail pressing-induced mechanical pain model; type: organism-based; conditions: in vivo
[13] = Mus musculus, ddN, sc, read-out: ED50

SMILES | ED50 (Mus musculus [1]; [13]) [mg/kg] | ED50 (Mus musculus [2]) [mg/kg] | other results
COc1ccc(CN2CCN([C@H](c3ccccc3)[C@H](O)c3ccccc3)CC2)cc1 | 40.1 | – | –
COc1ccc(CN2CCN([C@@H](c3ccccc3)[C@@H](O)c3ccccc3)CC2)cc1 | 13.5 | – | –
COc1ccc(CN2CCN([C@H](c3ccccc3Cl)[C@H](O)c3ccccc3)CC2)cc1.Cl | 58.4 | – | –
COc1ccc(CN2CCN([C@@H](c3ccccc3Cl)[C@@H](O)c3ccccc3)CC2)cc1.Cl | > 160 | – | –
COc1ccc(CN2CCN(C(c3ccccc3)C(O)c3ccccc3)CC2)cc1 (racemic) | > 160 | 31.1 | ED50 (Mus musculus [3]): 15.2 mg/kg
Cc1ccc(CN2CCN(C(c3ccccc3)C(O)c3ccccc3)CC2)cc1.Cl.O (racemic) | > 160 | 43.7 | –
Cl.O=[N+]([O-])c1ccc(CN2CCN(C(c3ccccc3)C(O)c3ccccc3)CC2)cc1 (racemic) | > 160 | 40 | –
CCOc1ccc(CN2CCN(C(c3ccccc3Cl)C(O)c3ccccc3)CC2)cc1.Cl (racemic) | > 160 | – | –
Cl.OC(c1ccccc1)C(c1ccccc1Cl)N1CCN(Cc2ccc(OCc3ccccc3)cc2)CC1 (racemic) | > 160 | – | –
COc1ccccc1CN1CCN(C(c2ccccc2)C(O)c2ccccc2)CC1.Cl.O (racemic) | > 160 | – | –
COc1ccccc1CN1CCN(C(c2ccccc2Cl)C(O)c2ccccc2)CC1.Cl.O (racemic) | > 160 | – | –
COc1cccc(CN2CCN(C(c3ccccc3Cl)C(O)c3ccccc3)CC2)c1.Cl (racemic) | > 160 | – | –
COc1cccc(CN2CCN(C(c3ccccc3C)C(O)c3ccccc3)CC2)c1.Cl.O (racemic) | > 160 | – | –
COc1ccc(CN2CCN(C(c3ccccc3Cl)C(O)c3ccccc3)CC2)cc1OC.Cl (racemic) | > 160 | – | –
Cl.OC(c1ccccc1)C(c1ccccc1Cl)N1CCN(Cc2ccc3c(c2)OCO3)CC1 (racemic) | > 160 | – | –
COc1cc(CN2CCN(C(c3ccccc3Cl)C(O)c3ccccc3)CC2)cc(OC)c1OC.Cl.O (racemic) | > 160 | – | –
COc1ccc(CN2CCN(C(c3ccccc3)C(O)c3ccccc3OC)CC2)cc1.Cl (racemic) | > 160 | – | –
COc1ccc(CN2CCN(C(c3ccccc3)C(O)c3ccc(OC)cc3)CC2)cc1.Cl.O (racemic) | > 160 | – | –
COc1ccc(CN2CCN(C(c3ccccc3)C(O)c3ccccc3Cl)CC2)cc1.Cl (racemic) | > 160 | – | –
COc1ccc(CN2CCN(C(c3ccccc3)C(O)c3cccc(Cl)c3)CC2)cc1.Cl.O (racemic) | > 160 | – | –
COc1ccc(CN2CCN(C(c3ccccc3)C(O)c3ccc(Cl)cc3)CC2)cc1.Cl (racemic) | > 160 | – | –
COc1ccc(CN2CCN(C(c3ccccc3)C(O)c3ccccc3C)CC2)cc1.Cl (racemic) | 120 | 100 | –
COc1ccc(CN2CCN(C(c3ccccc3)C(O)c3cccc(C)c3)CC2)cc1.Cl (racemic) | 26.4 | 18.5 | –
COc1ccc(CN2CCN(C(c3ccccc3)C(O)c3ccc(C)cc3)CC2)cc1.Cl (racemic) | 31.7 | 85.9 | –
COc1ccc(CN2CCN(C(c3ccccc3)C(O)c3ccc(O)cc3)CC2)cc1.Cl (racemic) | > 160 | – | –
COc1ccc(CN2CCN(C(c3ccccc3OC)C(O)c3ccccc3)CC2)cc1.Cl (racemic) | – | – | Activity (Mus musculus [4]): Non-toxic; Activity (Rattus norvegicus [5]): Non-toxic

SMILES | ED50 (Mus musculus [1]; [13]) [mg/kg] | ED50 (Mus musculus [2]) [mg/kg] | other results
COc1ccc(CN2CCN(C(c3cccc(OC)c3)C(O)c3ccccc3)CC2)cc1.Cl (racemic) | > 160 | – | –
COc1ccc(CN2CCN(C(c3ccc(OC)cc3)C(O)c3ccccc3)CC2)cc1.Cl (racemic) | 37.4 | 24.1 | –
COc1ccc(CN2CCN(C(c3cccc(Cl)c3)C(O)c3ccccc3)CC2)cc1.Cl (racemic) | 48.1 | 27.2 | –
COc1ccc(CN2CCN(C(c3ccc(Cl)cc3)C(O)c3ccccc3)CC2)cc1.Cl (racemic) | 39.7 | 16.4 | –
COc1ccc(CN2CCN(C(c3cccc(C)c3)C(O)c3ccccc3)CC2)cc1.Cl (racemic) | 28 | 27.7 | –
COc1ccc(CN2CCN(C(c3ccc(C)cc3)C(O)c3ccccc3)CC2)cc1.Cl (racemic) | 14.1 | 16.8 | –
COc1ccc(CN2CCN(C(c3ccc([N+](=O)[O-])cc3)C(O)c3ccccc3)CC2)cc1.Cl (racemic) | – | 10.2 | ED50 (Mus musculus [1]): 8.11 mg/kg
COc1ccc(CN2CCN(C(c3ccccc3Cl)C(O)c3ccc(C)cc3)CC2)cc1.Cl (racemic) | > 160 | – | –
COc1ccc(CN2CCN(C(c3ccc(Cl)cc3)C(O)c3ccc(C)cc3)CC2)cc1.Cl (racemic) | > 160 | – | –
COc1ccc(CN2CCN(C(c3ccccc3OC)C(O)c3ccc(C)cc3)CC2)cc1.Cl (racemic) | > 160 | – | –
COc1ccc(CN2CCN(C(c3ccccc3)C(OC(C)=O)c3ccccc3)CC2)cc1.Cl (racemic) | 80 | 46.3 | –
CCC(=O)OC(c1ccccc1)C(c1ccccc1)N1CCN(Cc2ccc(OC)cc2)CC1.Cl (racemic) | 73.1 | 44.3 | –
CCC(=O)OC(c1ccccc1)C(c1ccccc1Cl)N1CCN(Cc2ccc(OC)cc2)CC1.Cl (racemic) | > 160 | 90 | –
OC(c1ccccc1)C(c1ccccc1)N1CCN(c2ccccc2Cl)CC1 (racemic) | > 160 | – | –
COc1ccccc1N1CCN(C(c2ccccc2)C(O)c2ccccc2)CC1 (racemic) | > 160 | – | –
OC(c1ccccc1)C(c1ccccc1)N1CCN(c2ccccn2)CC1 (racemic) | > 160 | – | –
Cl.OC(c1ccccc1)C(c1ccccc1)N1CCN(C2CCCCC2)CC1 (racemic) | – | – | ED50 (Mus musculus [3]): > 80 mg/kg
Cl.OC(c1ccccc1)C(c1ccccc1)N1CCN(Cc2ccccc2)CC1 (racemic) | > 160 | 20.6 | –
OC(c1ccccc1)C(c1ccccc1)N1CCN(CCc2ccccc2)CC1 (racemic) | > 160 | – | –
COc1ccc(CN2CCN(C(c3ccccc3Cl)C(O)c3ccccc3)CC2)cc1.Cl (racemic; 38) | – | 20.9 | LD50 at 168 h [6]: 584 mg/kg; ED50 (Rattus norvegicus [7]): 228 mg/kg; ED50 (Mus musculus [8]): 165 mg/kg; LD50 at 168 h [9]: 431 mg/kg; LD50 at 168 h [10]: > 3200 mg/kg; LD50 at 168 h [11]: 509 mg/kg; ED50 (Mus musculus [1]): 79 mg/kg; Activity (Mus musculus [4]): Non-toxic; Activity (Rattus norvegicus [5]): Non-toxic; Activity (Rhesus monkey): Non-toxic
COc1ccc(CN2CCN(C(c3ccccc3C)C(O)c3ccccc3)CC2)cc1.Cl (racemic; 41) | – | – | ED50 (Mus musculus [1]): 65.2 mg/kg; Activity (Mus musculus [4]): Non-toxic; Activity (Rattus norvegicus [5]): Non-toxic
COc1ccc(CN2CCN(C(c3ccccc3Cl)C(O)c3ccccc3)CC2)cc1.Cl (racemic; 53) | – | – | ED50 (Mus musculus [1]): >160 mg/kg
COc1ccc(CN2CCN(C(c3ccccc3C)C(O)c3ccccc3)CC2)cc1.Cl (racemic; 54) | – | – | ED50 (Mus musculus [1]): >160 mg/kg
COc1ccc(CN2CCN(C(c3ccc([N+](=O)[O-])cc3)C(O)c3ccccc3)CC2)cc1.Cl (stereo in doubt; 55) | – | – | ED50 (Mus musculus [1]): >160 mg/kg
Cc1c(N(C)C)c(=O)n(-c2ccccc2)n1C [AMINOPYRINE] | – | – | ED50 (Mus musculus [3]): > 640 mg/kg; LD50 at 168 h [6]: 511 mg/kg; LD50 at 168 h [9]: 385 mg/kg; LD50 at 168 h [10]: > 2000 mg/kg; LD50 at 168 h [11]: 523 mg/kg; LD50 [12]: > 2560 mg/kg
COc1ccc2c3c1O[C@H]1[C@@H](O)C=C[C@H]4[C@@H](C2)N(C)CC[C@@]341.COc1ccc2c3c1O[C@H]1[C@@H](O)C=C[C@H]4[C@@H](C2)N(C)CC[C@@]341.O.O=P(O)(O)O.O=P(O)(O)O [CODEINE PHOSPHATE] | 28.1 | 8.21 | LD50 at 168 h [6]: 365 mg/kg; ED50 (Rattus norvegicus [7]): 196 mg/kg; ED50 (Mus musculus [8]): 98.4 mg/kg; LD50 at 168 h [9]: 271 mg/kg; LD50 at 168 h [10]: 1180 mg/kg; LD50 at 168 h [11]: 574 mg/kg
